In publication PMC8150775, “Repositioning Azelnidipine as a Dual Inhibitor Targeting CD47/SIRPα and TIGIT/PVR Pathways for Cancer Immuno-Therapy” (Biomolecules, 2021):

Legend:
human TIGIT/PVR = biological target: T1, human TIGIT/PVR (Homo sapiens, UniProt P15151); assay: Blocking assay, human PVR protein binding to CHOK1-hTIGIT cells; settings: concentration gradient; read-out: IC50, blocking human TIGIT/PVR (hPVR binding)
T1 construct: purchased ACRO Biosystem CD5-H82F6; host or cells: soluble protein purchased; TIGIT on CHOK1-hTIGIT cells (lenti-viral transfection)
Procedure: The abilities of small molecule inhibitors (SMIs) (purchased from TargetMol, Shanghai, China) to block the binding of SIRPα protein to CHOK1-CD47 cells or PVR protein to CHOK1-TIGIT cells were determined by flow cytometry, as previously reported. The SMIs at indicated concentrations were incubated with Fc-tagged SIRPα or PVR protein for 30 min at 4°C, followed by incubating with the indicated cells for another 30 min. Human SIRPα protein (SIA-H5251, ACRO Biosystem, Beijing, China), mouse SIRPα protein (SIA-M5258, ACRO Biosystem, Beijing, China), human PVR protein (CD5-H82F6, ACRO Biosystem, Beijing, China), and mouse PVR protein (50259-M03H, Sino Biological, Beijing, China) were used. PE-conjugated anti-human IgG antibody was used to detect the Fc protein bind to cells. Cells incubated with the Fc proteins and anti-human IgG antibody without the SMIs serve as the positive control. The mean fluorescent intensity (MFI) of each sample was detected and recorded by a flow cytometry. The blocking efficacy of the SMIs was calculated as the equation: (MFI of the positive control-MFI of the SMI)/MFI of the positive control × 100%.

MC38 tumors = assay: MC38 tumor model, alone or combined with radiotherapy, with ex vivo analysis; type: in vivo, C57BL/6 mice
Procedure: BABL/c mice were subcutaneously (s.c.) injected with 2 × 10^5 CT26 cells on the right back, and C57BL/6 mice were injected with 1 × 10^6 MC38 cells. One week later, tumor-bearing mice were randomized into indicated groups, and intraperitoneal (i.p.) injected with azelnidipine or normal saline every day for two weeks. Tumor volumes were measured every other day by the (a) length, (b) width, and (c) height and calculated as volume (V) = a × b × c/2. For the combinational model of azelnidipine and radiotherapy (RT), MC38 tumor-bearing mice received irradiation (IR) when the tumors reached 80–100 mm^3. The mice received one dose of 20 Gy irradiation at the tumor local site, and followed by the treatment of azelnidipine.
Tumor-bearing mice were sacrificed at the end of the treatment. The tumors were dissected and digested into single cell with an enzyme cocktail of 100 U/mL collagenase IV; and Dnase I. The infiltration of CD8^+ T cells at the tumor site was detected by flow cytometry by staining of anti-mouse CD45, anti-mouse CD3, anti-mouse CD8α or isotype control. The MDSCs at the tumor site were analyzed by staining of anti-mouse CD45, anti-mouse CD11b, anti-mouse Ly6C, and anti-mouse Ly6G. […] The frequency of IFN-γ secreting CD8^+ T cells were counted according to the fluorescence minus one (FMO) control with the isotype control of IFN-γ antibody. […]

CT26 tumors = assay: CD8+ T cell depletion CT26 tumor model; type: in vivo, BALB/c mice
Procedure: To establish the CD8^+ T cell depletion model, BALB/c mice were injected with 200 μg of CD8-depleting antibody (clone: YTS169.4) or matched Rat IgG isotype control (Sigma-Aldrich) the day before tumor inoculation and as well as weekly thereafter, resulting in a total of 3 injections per mouse. Depletion efficacy of CD8^+ T cells was verified by a flow cytometry with the blood sample of mice treated with indicated antibodies for 7 days.
Figure S2. The antitumor effects of Azelnidipine in CD8+ T cell depleted CT26 tumor model.
(A) CT26 tumor-bearing mice were i.p. administrated with 5 mg/kg of Azelnidipine daily as in the schematic diagram. (B) Blood samples of the mice treated with 200 μg anti-CD8 (YTS 169.4) or Rat IgG control for seven days were used to analyze the depletion efficacy by flow cytometry.
(C) Tumor growth curve of CT26 tumor-bearing mice treated with normal saline or Azelnidipine alone (n = 5 or 6). (D) Representative flow cytometry plots and summary data of the MDSCs in the tumor tissues of the Rat IgG treated groups (NS and Azelnidipine). (E) Representative flow cytometry histograms and summary data of the expression of SIRPα on M-MDSCs in the tumor tissues of the Rat IgG treated groups (NS and Azelnidipine). *, P<0.05.
(1 picture or pasted object on this page, not shown here)

[1] = 5 mg/kg i.p., Rat IgG treated groups

IC50 (human TIGIT/PVR): ~28 µM
Structure (SMILES): CC1=C(C(=O)OC(C)C)C(c2cccc([N+](=O)[O-])c2)C(C(=O)OC2CN(C(c3ccccc3)c3ccccc3)C2)=C(N)N1 (stereo not shown) [Azelnidipine]
growth of MC38 tumors, combination with IR (MC38 tumors; 5 mg/kg i.p. each day combined with 20 Gy local IR): remarkably suppress tumor growth
growth of MC38 tumors (MC38 tumors; 2 and 5 mg/kg i.p. each day for 2 weeks, alone): significantly restrict
anti-tumor effect with CD8+ T cells depleted (CT26 tumors; 5 mg/kg i.p. daily, CD8-depleting antibody): abrogated
CT26 tumor growth, Rat IgG treated groups (CT26 tumors; 5 mg/kg i.p. daily, Rat IgG isotype control): significantly inhibit tumor growth
expression level of SIRPα on MDSCs in CT26 tumor tissues, NS vs azelnidipine (CT26 tumors; [1]): no significant difference
infiltration of MDSCs in CT26 tumor tissues, NS vs azelnidipine (CT26 tumors; [1]): no significant difference
